How the values were obtained:
KRAS^G13C = KRAS^G13C (Homo sapiens, UniProt P01116, G13C); test: Activity on RAS variants
[1] = target: T1, CYPA:RMC-4998:KRAS^G12C tri-complex (Homo sapiens, UniProt P01116+P62937, G12C); test: Tri-complex stability after compound washout, cellular experiments; format: cell-based
CYPA = CYPA (Homo sapiens, UniProt P62937); test: Reversible binary complex formation with CYPA; format: binding
KRAS^G12C = KRAS^G12C (Homo sapiens, UniProt P01116+P62937, G12C); test: Kinetic target engagement assay; format: biochemical; conditions: active KRAS G12C in the presence of CYPA
GDP-loaded KRAS^G12C = GDP-loaded KRAS^G12C (Homo sapiens, UniProt P01116+P62937, G12C); test: Native PAGE tri-complex formation with GDP-loaded KRAS G12C; format: binding; conditions: KRAS G12C 2 μM, compound 10 μM, CYPA 2 μM
[2] = target: KRAS^G12C in MIA PaCa-2 cells (Homo sapiens, UniProt P01116+P62937, G12C); test: Covalent modification of KRAS G12C in cells; format: cell-based
KRAS^G12C mutant cells = test: Cancer cell line panel viability, 3D CellTiter-Glo; format: cell-based; conditions: n = 17 G12C, n = 11 non-G12C cell lines
[3] = target: T1, CYPA:RMC-4998:KRAS^G12C tri-complex; test: Tri-complex stability after compound washout, biophysical assays; format: binding
[4] = tested on: KRAS^G12C mutant NSCLC PDX models; test: Patient-derived xenograft panel, NSCLC; format: in vivo; conditions: 200 mg/kg orally once daily, 28-day treatment; 19/25 models
[5] = tested on: KRAS^G12C mutant CRC PDX models; test: Patient-derived xenograft panel, CRC; format: in vivo; conditions: 200 mg/kg orally once daily, 28-day treatment; 6/15 models

| Structure (SMILES) | Activity on KRAS G13C (KRAS^G13C) | Tri-complex half-life after compound washout [1] | koff of binary complex with CYPA (CYPA) | Kd (CYPA; read-out: Kd of binary complex with CYPA) | Covalent engagement efficiency kinact/KI (KRAS^G12C) | Complex formation with GDP-loaded KRAS G12C (GDP-loaded KRAS^G12C) | Time to complete covalent modification of KRAS G12C [2] | Selectivity index (G12C versus non-G12C mutant models) (KRAS^G12C mutant cells) | Tri-complex half-life after compound washout [3] | Models with mean tumor regression [4] | Models with mean tumor regression [5] | Tolerability (NCI-H358 xenografts; mouse, in vivo, po) | Tumor response (NCI-H358 xenografts; oral once daily, 28 days) | Duration of KRAS G12C engagement and inhibition of ERK phosphorylation in tumors (NCI-H358 xenografts; single dose) | Effect of CYPA loss on cellular activity (CYPA-null H358 cells) |
| --- | --- | --- | --- | --- | --- | --- | --- | --- | --- | --- | --- | --- | --- | --- | --- |
| CCn1c(-c2cccnc2[C@H](C)OC)c2c3cc(ccc31)-c1cccc(c1)C[C@H](NC(=O)[C@H](C(C)C)N1CC[C@]3(CCN(C(=O)C#CC(C)(C)N(C)C)C3)C1=O)C(=O)N1CCC[C@H](N1)C(=O)OCC(C)(C)C2 [RMC-4998] | little, if any, activity | greater than 8 hours | 1.0 s⁻¹ | 1090 nM | 272,000 M^−1s^−1 | No complex was detected | ≤ 5 min | 1450 times | greater than 8 hours | – | – | – | – | – | – |
| CCn1c(-c2cccnc2[C@H](C)OC)c2c3cc(ccc31)N1CCO[C@@H](C[C@H](NC(=O)[C@H](C(C)C)N(C)C(=O)C3(F)CCN(C(=O)C#CC(C)(C)N(C)C)CC3)C(=O)N3CCC[C@H](N3)C(=O)OCC(C)(C)C2)C1 [RMC-6291] | – | – | – | – | – | – | – | 13,500 times | – | 76% | 40% | well tolerated | near complete tumor regression | ~ 24 hours | – |
| C=C(F)C(=O)N1CCN(c2nc(OC[C@@H]3CCCN3C)nc3c2CCN(c2cccc4cccc(Cl)c24)C3)C[C@@H]1CC#N [adagrasib] | – | – | – | – | – | – | – | – | – | – | – | – | – | – | no effect |

Source: PMC10474815 (Science (New York, N.Y.), 2023)
